Data: patent US20220213070A1, “COMPOUNDS INHIBITING TDG ACTIVITY” (EPITAS BIOSCIENCES (SHANGHAI) CO., LTD., priority 2019, published 2022)

Tests used:
TDG [1] = target: T1, TDG (Homo sapiens, UniProt Q13569); assay: Inhibition of TDG mismatch repair activity (fluorescent G·U double-stranded DNA probe T1-T2); type: biochemical; settings: TDG 100 nM/L, preincubated with compound 37° C. 30 minutes; probe 30 nM; read-out: Inhibitory activity on TDG mismatch repair IC50
Excerpt: 14.1 Experimental Determination of Compound's Inhibitory Rate on TDG Mismatch Repair Activity
(1) A double-stranded DNA probe T1-T2 containing uracil bases was synthesized. The nucleotide sequence of the T1 chain was: 5′-FAM-TAAUGTGAATGGAGCTGAAAT-biotin-3′; The nucleotide sequence of the T2 chain was 5′-ATTTCAGCTCCATTCACGTTA-3′. Using PCR annealing program, the T1 strand and T2 strand were complementary to form a double-stranded DNA probe T1-T2.
(2) The reaction system and steps for each well of a 96-well plate were as follows: a. TDG (100 nM/L) was mixed with different concentrations of compounds, and the mixture was incubated at 37° C. for 30 minutes. The composition of the reaction buffer was: 20 mM HEPES pH7.5, 100 mM NaCl, 0.2 mM EDTA, 2.5 mM MgCl2; b. The double-stranded DNA probe T1-T2 was added to the mixture to obtain a final volume of 100 μL, with a concentration of 30 nM, and the mixture was incubated at 25° C. for 30 min; c. 1 μL of streptavidin magnetic beads were added to the reaction solution and fully bound the biotin-labeled DNA for 1 hour; d. NaOH was added to the reaction solution to a final concentration of 200 mM, and the mixture was incubated at room temperature for 30 minutes; e. Under the action of a magnetic stand the streptavidin magnetic beads were adsorbed to the tube wall, the supernatant was transferred to a new 96-well plate, and placed in a Tecan microplate reader for fluorescence measurement. The parameter settings were: excitation wavelength 485 nm; emission wavelength 520 nm. A linear curve between fluorescence intensity and TDG concentration was constructed, R^2=0.9968, and the linear range was 0-50 nM/L;
According to the biological method described in this example, the selected compounds of the present invention were analyzed, and the results are shown in Table 1. Among them, “++” in Table 1 refers to the inhibitory activity for TDG mismatch repair with IC50≤5 μM; “+” refers to the inhibitory activity for TDG mismatch repair with IC50>5 μM.

[2] = tested on: Lung cancer cell line Calu-1; assay: Inhibition of the growth of Calu-1 cells (CellTiter-Glo, 72 hours); type: cell-based; settings: Homo sapiens, 72 hours of culturing, read-out: Inhibitory activity on alu-1 cell growth IC50
Description: 14.2 Experimental Determination of Compound's Inhibitory Rate on the Growth of Calu-1 Cells
Lung cancer cell line Calu-1 was cultured in 90% McCoy's 5A medium (BI, 01-075-1ACS)+10% fetal bovine serum (Gibco, 10270106), placed in a CO2 incubator (37° C., 5% CO2, 95% air) for culturing. Calu-1 cells were digested with trypsin (Gibco, 12604-021) and seeded in a 384-well plate at a density of 500 cells per well. The medium was 50 μL and it was cultured overnight at 37° C. in an incubator. On the next day, different concentrations of test compounds were added, and the final concentration of DMSO was 0.1%. After 72 hours of culturing, the cells were taken out for test. The cell culture medium from the 384-well plate to be tested was removed, and fresh culture medium premixed with CTG was immediately added: the ratio of the culture medium to CellTiter-Glo® 2.0 reagent (Promega, G9243) was 2:1, 30 ul was added to each well. The plate was shaken at room temperature for 20 minutes, and then a multi-function plate reader (TECAN, Infinite 200 Pro) was used according to the reagent instructions to determine the cell survival.
According to the biological method described in this example, the selected compounds of the present invention were analyzed, and the results are shown in Table 1. Among them, “++” in Table 1 refers to the inhibitory activity on the growth of calu-1 cells with IC50≤5 μM; “+” refers to the inhibitory activity on the growth of calu-1 cells with IC50>5 μM.

TDG [3] = target: T1, TDG; assay: TDG inhibitory activity of compounds in cells (caC-cmv-firefly luciferase reporter, HEK 293T TDG KO cells transfected with pCDNA4-TDG); type: cell-based; settings: read-out: Inhibition rate on TDG activity
Description: Experimental Determination of TDG Inhibitory Activity of Compounds in Cells
The operation steps of this example are as follows:
(1) Preparation of Methylation Reporter Plasmid:
(a) SAM with a stock solution concentration of 32 mM was diluted with ultrapure water to 1600 μM;
(b) The reaction system was prepared according to the following ratio: 30 μl ultrapure water, 5 μl 10×NEBuffer 2, 5 μl diluted SAM, 1 μg pCpGL-CMV-firefly plasmid, 1 μl SssI methylase (4 U/μl); 50 μl in total, the reaction was carried out at 37° C. for 2 hours;
(c) The mixture was heated at 65° C. for 20 minutes. Then 0.2% SDS was added, the reaction was carried out at 80° C. for 10 min; and then 1 μl Proteinase K was added, the reaction was carried out at 50° C. for 1 h;
(d) The methylated plasmid was recovered with Dr. GenTLE® sedimentation aid (TAKARA).
(2) Preparation of 5fC/5caC pCpGL-CMV-Firefly Reporter Plasmid
(a) The following 10× reaction system was prepared:
(b) The reaction system was prepared according to the following ratio:
(c) The reaction was carried out at 37° C. for one hour;
(d) 24 μg Tet1 protein was added for the second time and the reaction was continued for one hour;
(e) SDS was added to a final concentration of 0.5%, 80° C., 10 minutes, then 1 μl Proteinase K was added, 55° C. overnight.
(f) The treated caC-cmv-firefly plasmid was recovered with Dr. GenTLE® sedimentation aid (TAKARA) and was quantified.
(3) Using the Luciferase Activity Assay Method to Detect the Inhibitory Rate of Small Molecule Compounds on Intracellular TDG Enzyme Activity
In a 96-well plate, the reaction system and operation flow of each well were as follows:
(a) 1 ng caC-cmv-firefly, Ing pCpGL-CMV-Relina and 150 ng pCDNA4-TDG or 150 ng pCDNA4-myc plasmid, were diluted to 75 ul Opti-MEM, mixed well and allowed to stand still for 5 minutes;
(b) 2 ul transfection reagent (Hieff Trans™ Liposomal transfection Reagent (0.5 ul/well, YEAEEN, Cat #40802)) was diluted in 100 ul Opti-MEM, mixed well and allowed to stand still for 5 minutes;
(c) 75 ul of (a) and (b) were mixed respectively, and allowed to stand still at room temperature for 20 minutes;
(d) HEK 293T TDG KO cells were digested with trypsin, the cells were collected and counted, and the suspension cell concentration was adjusted to 4×10^5/ml;
(e) 50 ul of the mixture (c) was added to each well, and at the same time 100 ul of the diluted cell suspension was added to the same well, and they were mixed well.
(f) After the cells adhering to the wall, different concentrations of small molecule compounds to be tested were added to each well.
(g) Incubation was performed in a 37° C. CO2 incubator for 72 hours. The supernatant was removed and the cells were quickly freezed at −80° C.
(h) Before detecting the luciferase activity, the cells to be tested were removed from −80° C. and allowed to stand still at room temperature for 30 minutes. Following the instructions of Dual-Glo® Luciferase Reagent (PROMEGA), the firefly fluorescence value and Renilla fluorescence value of each well were detected.
(i) The firefly fluorescence value was divided with the Renilla fluorescence value of each well; 96-well plate Z′ and experimental window was calculated by the ratio of transfected caC-cmv-firefly, pCpGL-CMV-Relina, pCDNA4-TDG plasmid mixture plus DMSO experimental group to transfected caC-cmv-firefly, pCpGL-CMV-Relina, pCDNA4-myc plasmid mixture plus DMSO experimental group, and the relative enzyme activity inhibition rate of each compound was calculated.
According to the biological method described in this example, the selected compounds of the present invention were analyzed, and the results are shown in Table 2. Among them, “+” in Table 2 refers to the compound's TDG inhibitory activity at a concentration of 10 μM≤25%; “++” refers to the compound's TDG inhibitory activity at a concentration of 10 μM>25%.

T1 sequence (Q13569 whole entry): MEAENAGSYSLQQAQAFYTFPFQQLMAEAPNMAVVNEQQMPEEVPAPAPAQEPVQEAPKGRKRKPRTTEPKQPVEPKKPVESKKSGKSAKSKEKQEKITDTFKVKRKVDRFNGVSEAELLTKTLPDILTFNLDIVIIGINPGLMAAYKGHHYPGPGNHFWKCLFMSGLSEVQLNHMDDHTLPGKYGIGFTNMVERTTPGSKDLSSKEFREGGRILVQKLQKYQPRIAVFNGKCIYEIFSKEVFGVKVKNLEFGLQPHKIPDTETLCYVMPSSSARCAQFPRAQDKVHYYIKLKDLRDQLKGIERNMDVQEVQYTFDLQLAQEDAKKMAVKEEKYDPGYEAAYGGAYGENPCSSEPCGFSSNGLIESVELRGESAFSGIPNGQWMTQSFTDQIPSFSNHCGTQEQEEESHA

SMILES: O=C(CCN1CCc2ccccc2C(O)(c2ccc(F)cc2)C1)c1ccc2c(c1)C(=O)CCO2 (stereo not drawn) [Compound 54, 6-(3-(1-(4-fluorophenyl)-1-hydroxy-1,2,4,5-tetrahydro-3H-benzo[d]azepine-3-yl)propionyl)chroman-4-one]
- IC50 (TDG [1]): ≤ 5 µM
- IC50 [2]: ≤ 5 µM
- inhibition at 10 µM (TDG [3]): < 25%

SMILES: O=C(CCN1Cc2ccc(Cl)cc2C1)c1ccc2c(c1)OCCO2 [Compound 4, 3-(5-chloroisoindolin-2-yl)-1-(2,3-dihydrobenzo[b][1,4]dioxin-6-yl)propan-1-one]
- IC50 (TDG [1]): ≤ 5 µM
- IC50 [2]: > 5 µM
- inhibition at 10 µM (TDG [3]): < 25%

SMILES: O=C(CCCN1Cc2ccccc2C1)c1ccc2c(c1)OCCO2 [Compound 31, 1-(2,3-dihydrobenzo[b][1,4]dioxin-6-yl)-4-(isoindolin-2-yl)butan-1-one]
- IC50 (TDG [1]): > 5 µM
- IC50 [2]: > 5 µM
- inhibition at 10 µM (TDG [3]): < 25%

SMILES: O=C(CCN1Cc2ccc([N+](=O)[O-])cc2C1)c1ccc2c(c1)OCCO2 [Compound 2, 1-(2,3-dihydrobenzo[b][1,4]dioxin-6-yl)-3-(5-nitroisoindo1-2-yl)propan-1-one]
- IC50 (TDG [1]): ≤ 5 µM
- IC50 [2]: ≤ 5 µM
- inhibition at 10 µM (TDG [3]): < 25%

SMILES: COc1ccc(C(=O)CCN2Cc3ccccc3C2)cc1OC [Compound 38, 1-(3,4-dimethoxyphenyl)-3-(isoindolin-2-yl)propan-1-one]
- IC50 (TDG [1]): > 5 µM
- IC50 [2]: > 5 µM
- inhibition at 10 µM (TDG [3]): > 25%

SMILES: O=C(CCN1CCc2ccccc2C1)c1ccc2c(c1)OCCO2 [Compound 13, 1-(2,3-dihydrobenzo[b][1,4]dioxin-6-yl)-3-(3,4-dihydroisoquinoline-2(1H)-yl)propan-1-one]
- IC50 (TDG [1]): ≤ 5 µM
- IC50 [2]: ≤ 5 µM
- inhibition at 10 µM (TDG [3]): < 25%

SMILES: O=C(CCN1CCCC1)c1ccc2c(c1)OCCO2 [Compound 16, 1-(2,3-dihydrobenzo[b][1,4]dioxin-6-yl)-3-(pyrrolidin-1-yl)propan-1-one]
- IC50 (TDG [1]): ≤ 5 µM
- IC50 [2]: > 5 µM
- inhibition at 10 µM (TDG [3]): < 25%

SMILES: O=C(CCn1cc(-c2ccccc2)cn1)c1ccc2c(c1)OCCO2 [Compound 28, 1-(2,3-dihydrobenzo[b][1,4]dioxin-6-yl)-3-(4-phenyl-1H-pyrazol-1-yl)propan-1-one]
- IC50 (TDG [1]): > 5 µM
- IC50 [2]: > 5 µM
- inhibition at 10 µM (TDG [3]): < 25%

SMILES: O=C(CCN1Cc2ccccc2C1)c1ccc2c(c1)CCCN2 [Compound 30, 3-(isoindolin-2-yl)-1-(1,2,3,4-tetrahydroquinolin-6-yl)propan-1-one]
- IC50 (TDG [1]): > 5 µM
- IC50 [2]: > 5 µM
- inhibition at 10 µM (TDG [3]): < 25%

SMILES: O=C(CCN1CC2C=CC(c3ccncc3)=CC2C1)c1ccc2c(c1)OCCO2 (stereo not drawn) [Compound 41, 1-(2,3-dihydrobenzo[b][1,4]dioxin-6-yl)-3-(5-(pyridin-4-yl)-1,3,3a,7αtetrahydro-2H-isoindolepyridin-2-yl)propan-1-one]
- IC50 (TDG [1]): > 5 µM
- IC50 [2]: > 5 µM
- inhibition at 10 µM (TDG [3]): < 25%

SMILES: OC(CCN1Cc2ccccc2C1)c1ccc2c(c1)OCCO2 (stereo not drawn) [Compound 10, 1-(2,3-dihydrobenzo[b][1,4]dioxin-6-yl)-3-(isoindolin-2-yl)propan-1-ol]
- IC50 (TDG [1]): > 5 µM
- IC50 [2]: > 5 µM
- inhibition at 10 µM (TDG [3]): < 25%

SMILES: O=C(CCN1C(=O)c2ccccc2C1=O)c1ccc2c(c1)OCCO2 [Compound 12, 2-(3-(2,3-dihydrobenzo[b][1,4]dioxin-6-yl)-3-oxopropyl)isoindole-1,3-dione]
- IC50 (TDG [1]): > 5 µM
- IC50 [2]: > 5 µM
- inhibition at 10 µM (TDG [3]): < 25%

SMILES: O=C(CCN1CCC(c2ccc(F)cc2O)C1)c1ccc2c(c1)OCCO2 (stereo not drawn) [Compound 51, 1-(2,3-dihydrobenzo[b][1,4]dioxin-6-yl)-3-(3-(4-fluoro-2-hydroxyphenyl)pyrrolidine-1-yl)propan-1-one]
- IC50 (TDG [1]): > 5 µM
- IC50 [2]: > 5 µM
- inhibition at 10 µM (TDG [3]): < 25%

SMILES: Nc1ccc2c(c1)CN(CCC(=O)c1ccc3c(c1)OCCO3)C2 [Compound 9, 3-(5-aminoisoindolin-2-yl)-1-(2,3-dihydrobenzo[b][1,4]dioxin-6-yl)propan-1-one]
- IC50 (TDG [1]): ≤ 5 µM
- IC50 [2]: ≤ 5 µM
- inhibition at 10 µM (TDG [3]): > 25%

SMILES: CC(=O)c1ccc2c(c1)CN(CCC(=O)c1ccc3c(c1)OCCO3)C2 [Compound 7, 3-(5-acetylisoindolin-2-yl)-1-(2,3-dihydrobenzo[b][1,4]dioxin-6-yl)propan-1-one]
- IC50 (TDG [1]): ≤ 5 µM
- IC50 [2]: > 5 µM
- inhibition at 10 µM (TDG [3]): < 25%

SMILES: O=C(CCN1Cc2ccccc2C1)c1ccc2c(c1)OCO2 [Compound 35, 1-(benzo[d][1,3]dioxo1-5-yl)-3-(isoindolin-2-yl)propan-1-one]
- IC50 (TDG [1]): ≤ 5 µM
- IC50 [2]: ≤ 5 µM
- inhibition at 10 µM (TDG [3]): < 25%

SMILES: COc1ccc2c(c1)CN(CCC(=O)c1ccc3c(c1)OCCO3)C2 [Compound 5, 1-(2,3-dihydrobenzo[b][1,4]dioxin-6-yl)-3-(5-methoxyisoindolin-2-yl)propan-1-one]
- IC50 (TDG [1]): ≤ 5 µM
- IC50 [2]: ≤ 5 µM
- inhibition at 10 µM (TDG [3]): < 25%
